Assays:
tardive dyskinesia [1] = test: Case reports: oral carvedilol in hospitalized patients with tardive dyskinesia; assay type: in vivo, human
Experimental: (§1) Clozapine is recognized as a drug that, because of dangerous side-effects, is reserved as the last resort after the failure of long courses and high doses of several other antipsychotic medications. […] Carvedilol 6.25 mg once daily was then started. On 11/15 the carvedilol dose was increased to 6.25 mg twice daily. […] On the ninth hospital day carvedilol was discontinued.
On the first hospital day carvedilol 3.125 mg twice daily was started. […] Carvedilol was then restarted. […] Carvedilol was continued for a month.
This person was admitted to the hospital for the treatment of an anxiety disorder whose symptoms included insomnia, nightmares, unhappiness, suicidality, continual worry, and panic attacks. They had previously taken the antidepressants nortriptyline and fluoxetine, and was taking nefazodone 375 mg/day for one year. They were also taking the antihypertensive medication benazepril 40 mg/day, and the sleeping medication zaleplon 10 mg/day. […] They then received carvedilol 3.125 mg twice daily.
This person was in the hospital because of difficulty swallowing. […] This aspiration put them at risk of aspiration pneumonia, which is disabling and can be life-threatening. For them to receive water and food a tube was surgically inserted between their stomach and the outside of their abdomen. […] They then received carvedilol 6.25 mg twice daily.

tardive akathisia = test: Case reports: oral carvedilol, agitated movements of tardive akathisia; assay type: in vivo, human
Description: These movements were consistent with tardive dyskinesia. […] They mentioned having been told by several psychiatrists that […] has tardive dyskinesia, and that […]'d previously taken numerous different antipsychotic drugs, including risperidone, olanzapine, and clozapine. Clozapine is recognized as a drug that, because of dangerous side-effects, is reserved as the last resort after the failure of long courses and high doses of several other antipsychotic medications. On the third hospital day, a Friday (Nov. 13, 1998), the tongue protrusion movements continued unchanged. Carvedilol 6.25 mg once daily was then started. On 11/15 the carvedilol dose was increased to 6.25 mg twice daily. When next evaluated, at 9am on Monday 11/16, the tongue protrusions were absent. The absence of dyskinesia persisted despite the patient's repeated expressions of anxiety and anxious thoughts. […] Agitation then decreased, a sign of improvement in tardive akathisia. On the ninth hospital day carvedilol was discontinued. The patient was discharged on the 15th hospital day, without recurrence of any tongue protrusion, and without observable agitation. […] They spontaneously complained that children in their neighborhood mocked them and called them a witch because of the tongue movements. They stated that […] avoids leaving the house because of harassment by the children. […]

tardive dystonia = test: Case report: oral carvedilol, tardive dystonia and swallowing difficulty; assay type: in vivo, human; details: Case #4; carvedilol 6.25 mg twice daily; 28 hours, after three doses
Description: This person was in the hospital because of difficulty swallowing. This began about a year prior to hospitalization while taking haloperidol and lithium medications. Increasingly they would cough while eating or drinking. […] The swallowing difficulty worsened despite replacement of lithium and haloperidol with divalproex and olanzapine. […] This aspiration put them at risk of aspiration pneumonia, which is disabling and can be life-threatening. For them to receive water and food a tube was surgically inserted between their stomach and the outside of their abdomen. […] When they tried to drink water from a cup these movements obviously interfered with swallowing. […] On the Abnormal Involuntary Movement SCALE (AIMS) they scored 13. They then received carvedilol 6.25 mg twice daily. Twenty-eight hours later, after three doses, their swallowing was rated by the Speech Therapy Department as 70% improved.

[2] = Side effects of carvedilol in patients; assay type: in vivo, human
Experimental: as §1

[3] = cited from earlier work
[4] = cited from earlier work; remark: listed apart in the source
[5] = system: orofacial movements caused by haloperidol; details: one-day and two-week trials; cited from earlier work
[6] = system: acute dystonias induced by antipsychotic medication; details: monkeys; cited from earlier work
tardive dyskinesia [7] = details: most studies; cited from earlier work
[8] = Case #3, carvedilol 3.125 mg twice daily, 24 hours, after two doses

Compound: COc1ccccc1OCCNCC(O)COc1cccc2[nH]c3ccccc3c12 (racemic) [carvedilol, ±-1-(carbazol-4-yloxy)-3-[[2-(o-methyoxyphenoxy)ethyl]amino]-2-propanol]
- tongue protrusions (tardive dyskinesia [1]; Case #1, carvedilol 6.25 mg once daily, then twice daily, evaluated after 3 days): absent
- tongue protrusions (tardive dyskinesia [1]; Case #2, carvedilol 3.125 mg twice daily, next day): no extensions of the tongue out of the mouth occurred
- tongue protrusions after carvedilol restarted (tardive dyskinesia [1]; Case #2, rehospitalized, carvedilol restarted, beginning on the next day): no longer seen
- chewing movements (tardive dyskinesia [1]; [8]): gone
- lip and tongue movements (tardive dyskinesia [1]; [8]): in normal range
- AIMS score (Abnormal Involuntary Movement Scale) (tardive dyskinesia [1]; Case #3, carvedilol 3.125 mg twice daily, 24 hours, after two doses, score before treatment 11): 6
- tongue dyskinesia (tardive dyskinesia [1]; Case #4, carvedilol 6.25 mg twice daily, 28 hours, after three doses): decreased from mild to marginal
- AIMS score (Abnormal Involuntary Movement Scale) (tardive dyskinesia [1]; Case #4, carvedilol 6.25 mg twice daily, 28 hours, after three doses, score before treatment 13): 8
- agitation (sign of tardive akathisia) (tardive akathisia; Case #1, carvedilol 6.25 mg in the morning and 12.5 mg at bedtime): decreased
- agitated movements consistent with tardive akathisia (tardive akathisia; Case #2, at discharge after one week of carvedilol): no agitated movements
- facial dystonia (tardive dystonia): disappeared
- neck dystonia (tardive dystonia): decreased from moderate to mild
- swallowing improvement rated by Speech Therapy Department (tardive dystonia): 70%
- faintness or bradycardia ([2]; Case #1, carvedilol 6.25 mg twice daily): lack of any faintness or bradycardia
- side effects ([2]; usually effective doses to treat TD): non-existent or mild
- average elimination half-life ([3]; from the human body): about 8 hours
- absorption ([3]; taken by mouth): rapid and complete
- in vitro antioxidant activity [4]: exceptionally potent

Compound: CC(C)NCC(O)COc1cccc2ccccc12 (stereo not drawn) [propranolol]
- orofacial movements caused by haloperidol [5]: did not diminish

Compound: C#CCN(C)Cc1ccccc1 [pargyline]
- acute dystonias induced by antipsychotic medication [6]: reduced

Compound: vitamin E
- improvement of TD (tardive dyskinesia [7]): no significant improvement

Reference: patent publication US6365618B1, “Administration of carvedilol to mitigate tardive movement disorders, psychosis, mania, and depression” (priority 2000, dated 2002)
